Results from ChEMBL document CHEMBL3045927, “Synthesis of 4-methyl-1,2,3-thiadiazole derivatives via Ugi reaction and their biological activities” (2010).

Experiments:
Type in all cases: functional
Colletotrichum lagenaria = test: Fungicidal activity against Colletotrichum lagenaria at 50 ug/ml by growth inhibition method; set-up: scale not given: the % may be the effect or the level left
[1] = test system: Botryosphaeria berengeriana; test: Fungicidal activity against Botryosphaeria berengeriana at 50 ug/ml by growth inhibition method; set-up: scale not given: the % may be the effect or the level left
Cercospora beticola = test: Fungicidal activity against Cercospora beticola at 50 ug/ml by growth inhibition method; set-up: scale not given: the % may be the effect or the level left
Tobacco mosaic virus [2] = test: In vitro antiviral activity against Tobacco mosaic virus (TMV) infected tobacco leaves at 100 ug/ml
Fusarium graminearum = test: Fungicidal activity against Fusarium graminearum at 50 ug/ml by growth inhibition method; set-up: scale not given: the % may be the effect or the level left
Phytophthora infestans = test: Fungicidal activity against Phytophthora infestans at 50 ug/ml by growth inhibition method; set-up: scale not given: the % may be the effect or the level left
Tobacco mosaic virus [3] = test: In vitro antiviral activity against Tobacco mosaic virus (TMV) infected tobacco leaves at 500 ug/ml
Pyricularia grisea = test: Fungicidal activity against Magnaporthe grisea at 50 ug/ml by growth inhibition method; set-up: scale not given: the % may be the effect or the level left
Alternaria solani = test: Fungicidal activity against Alternaria solani at 50 ug/ml by growth inhibition method; set-up: scale not given: the % may be the effect or the level left
Thanatephorus cucumeris = test: Fungicidal activity against Thanatephorus cucumeris at 50 ug/ml by growth inhibition method; set-up: scale not given: the % may be the effect or the level left
Rhizoctonia solani = test: Fungicidal activity against Rhizoctonia solani at 50 ug/ml by growth inhibition method; set-up: scale not given: the % may be the effect or the level left
Mycosphaerella arachidis = test: Fungicidal activity against Mycosphaerella arachidis at 50 ug/ml by growth inhibition method; set-up: scale not given: the % may be the effect or the level left
Fusarium oxysporum = test: Fungicidal activity against Fusarium oxysporum at 50 ug/ml by growth inhibition method; set-up: scale not given: the % may be the effect or the level left

| SMILES | Activity (Colletotrichum lagenaria) [%] | Activity [1] [%] | Activity (Cercospora beticola) [%] | inhibition at 100 µg/mL (Tobacco mosaic virus [2]) [%] | Activity (Fusarium graminearum) [%] | Activity (Phytophthora infestans) [%] | inhibition at 500 µg/mL (Tobacco mosaic virus [3]) [%] | Activity (Pyricularia grisea) [%] | Activity (Alternaria solani) [%] | Activity (Thanatephorus cucumeris) [%] | Activity (Rhizoctonia solani) [%] | Activity (Mycosphaerella arachidis) [%] | Activity (Fusarium oxysporum) [%] |
| --- | --- | --- | --- | --- | --- | --- | --- | --- | --- | --- | --- | --- | --- |
| Cc1ccc(N(C(=O)c2snnc2C)C(C(=O)NC2CCCCC2)c2cccc(Cl)c2)cc1F (configuration not stated) | 16 | 8 | 13 | 15 | 27 | 29 | 39 | 29 | 25 | 28 | 34 | 14 |  |
| Cc1ccc(N(C(=O)c2snnc2C)C(C(=O)NC2CCCCC2)c2ccc([N+](=O)[O-])cc2)cc1Cl (configuration not stated) | 24 | 38 | 11 | 26 |  | 12 | 32 | 18 | 35 | 25 | 29 | 16 | 22 |
| Cc1cccc(C(C(=O)NC2CCCCC2)N(C(=O)c2snnc2C)c2ccc(C)c(F)c2)c1 (configuration not stated) | 0 | 0 | 33 | 18 | 34 | 0 | 29 | 0 | 0 | 0 | 28 | 21 |  |
| Cc1ccc(N(C(=O)c2snnc2C)C(C(=O)NC2CCCCC2)c2ccccc2F)cc1F (configuration not stated) | 42 | 31 | 0 | 22 | 0 | 41 | 23 | 43 | 38 | 33 | 49 | 29 |  |
| Cc1ccc(N(C(=O)c2snnc2C)C(C(=O)NC2CCCCC2)c2ccccc2Cl)cc1F (configuration not stated) | 26 | 31 | 0 | 21 | 23 | 47 | 23 | 14 | 19 | 22 | 37 | 29 |  |
| Cc1ccc(N(C(=O)c2snnc2C)C(C(=O)NC2CCCCC2)c2ccc(F)cc2)cc1F (configuration not stated) | 26 | 19 | 0 | 40 | 8 | 29 | 36 | 14 | 44 | 17 | 40 | 43 |  |
| Cc1ccc(N(C(=O)c2snnc2C)C(C(=O)NC2CCCCC2)c2ccc(Cl)cc2)cc1Cl (configuration not stated) | 32 | 27 | 0 | 38 | 35 | 41 | 29 | 29 | 38 | 50 | 40 | 29 |  |
| Cc1ccc(N(C(=O)c2snnc2C)C(C(=O)NC2CCCCC2)c2ccccc2[N+](=O)[O-])cc1Cl (configuration not stated) | 32 | 41 | 11 | 15 |  | 0 | 47 | 24 | 35 | 22 | 29 | 16 | 22 |
| Cc1ccc(N(C(=O)c2snnc2C)C(C(=O)NC2CCCCC2)c2ccc(F)cc2)cc1Cl (configuration not stated) | 5 | 26 | 27 | 15 |  | 35 | 16 | 25 | 37 | 12 | 67 | 26 | 0 |
| Cc1ccc(N(C(=O)c2snnc2C)C(C(=O)NC2CCCCC2)c2ccccc2Cl)cc1Cl (configuration not stated) | 5 | 13 | 27 | 19 |  | 26 | 20 | 40 | 26 | 12 | 67 | 48 | 0 |
| Cc1ccc(N(C(=O)c2snnc2C)C(C(=O)NC2CCCCC2)c2ccccc2[N+](=O)[O-])cc1F (configuration not stated) | 5 | 0 | 67 | 17 | 41 | 5 | 29 | 0 | 0 | 0 | 37 | 21 |  |
| Cc1ccc(N(C(=O)c2snnc2C)C(C(=O)NC2CCCCC2)c2ccccc2C(F)(F)F)cc1Cl (configuration not stated) | 53 | 46 | 0 | 18 | 12 | 41 | 38 | 43 | 38 | 33 | 60 | 29 |  |
| Cc1ccc(N(C(=O)c2snnc2C)C(C(=O)NC2CCCCC2)c2ccc(C(F)(F)F)cc2)cc1F (configuration not stated) | 5 | 0 | 50 | 10 | 24 | 0 | 25 | 14 | 0 | 6 | 35 | 57 |  |
| Cc1ccc(C(C(=O)NC2CCCCC2)N(C(=O)c2snnc2C)c2ccc(C)c(F)c2)cc1 (configuration not stated) | 0 | 0 | 17 | 52 | 28 | 5 | 36 | 29 | 0 | 0 | 33 | 14 |  |
| Cc1ccc(N(C(=O)c2snnc2C)C(C(=O)NC2CCCCC2)c2ccc(Cl)cc2)cc1F (configuration not stated) | 37 | 23 | 0 | 28 | 12 | 24 | 30 | 43 | 38 | 22 | 43 | 0 |  |
| Cc1ccc(N(C(=O)c2snnc2C)C(C(=O)NC2CCCCC2)c2cccc(O)c2)cc1Cl (configuration not stated) | 44 | 48 | 44 | 24 |  | 24 | 35 | 29 | 56 | 22 | 43 | 47 | 34 |
| Cc1ccc(N(C(=O)c2snnc2C)C(C(=O)NC2CCCCC2)c2cccc(F)c2)cc1F (configuration not stated) | 5 | 0 | 17 | 9 | 38 | 5 | 29 | 0 | 0 | 0 | 42 | 21 |  |
| Cc1ccc(N(C(=O)c2snnc2C)C(C(=O)NC2CCCCC2)c2ccccc2F)cc1Cl (configuration not stated) | 47 | 30 | 16 | 18 | 46 | 35 | 24 | 14 | 38 | 33 | 49 | 43 |  |
| Cc1ccc(N(C(=O)c2snnc2C)C(C(=O)NC2CCCCC2)c2ccccc2C)cc1Cl (configuration not stated) | 37 | 35 | 0 | 38 | 23 | 35 | 42 | 0 | 56 | 43 | 43 | 14 |  |
| Cc1ccc(N(C(=O)c2snnc2C)C(C(=O)NC2CCCCC2)c2ccc(C(F)(F)F)cc2)cc1Cl (configuration not stated) | 16 | 19 | 0 | 11 | 19 | 29 | 34 | 14 | 31 | 22 | 37 | 57 |  |
| Cc1ccc(N(C(=O)c2snnc2C)C(C(=O)NC2CCCCC2)c2cccc([N+](=O)[O-])c2)cc1Cl (configuration not stated) | 26 | 19 | 0 | 11 | 12 | 41 | 9 | 0 | 38 | 20 | 40 | 57 |  |
